{
  "source": "patent US5438118A",
  "about": "“HIV protease inhibitors” (SmithKline Beechman Corp., priority 1993, dated 1995)",
  "data": [
    {"target": "T1, rHIV protease (Human immunodeficiency virus type 1 group M subtype B, UniProt P03366)", "T1 construct": "the reaction is initiated with purified 0.01-1 mg HIV protease", "assay": "Inhibition of hydrolysis of a peptide substrate by rHIV protease (HPLC, Dixon analysis)", "type": "biochemical, HIV", "conditions": "substrate Ac-Arg-Ala-Ser-Gln-Asn-Tyr-Pro-Val-Val-NH2, MENDT buffer pH 6.0, 37° C.; Ki from Dixon analysis", "method": "The data in the following table is representative of inhibition produced by these compounds.\nA typical assay contains […] MENDT buffer (50 mM Mes (pH 6.0; 2-(N-morpholino)ethanesulfonic acid), 1 mM EDTA, 1 mM dithiothreitol, 200 mM NaCl, 0.1% Triton X100); 2, 3, or 6 mM N-acenyl-L-arginyl-L-alanyl-L-seryl-L-glutaminyl-L-asparaginyl-L-tyrosyl-L-prolyl-L-valyl-L-valinamide (Ac-Arg-Ala-Ser-Gln-Asn-Tyr-Pro-Val-Val-[…]NH2; Km =7 mM); and micromolar and sub-micromolar concentrations of synthetic compounds. Following incubation at 37° C. for several min, the reaction is initiated with purified 0.01-1 mg HIV protease. Reaction mixtures (37° C.) are quenched after 10-20 min with an equal volume of cold 0.6N trichloroacetic acid, and, following centrifugation to remove precipitated material, peptidolysis products are analyzed by reverse phase HPLC (Beckman Ultrasphere ODS, 4.5 mm×[…]; mobile phase; 5-20% acetonitrile/H2 O--0.1% TFA (15 min), 20% acetonitrile/H2 O--0.1% TFA (5 min) at 1.5 mL/min, detection at 220 nm. The elution positions of Ac-Arg-Ala-Ser-Gln-Asn-Tyr-Pro-Val-Val-NH2 (17-18 min) and Ac-Arg-Ala-Ser-Gln-Asn-Tyr (10-11 min) are confirmed with authentic material. Initial rates of Ac-Arg-Ala-Ser-Gln-Asn-Tyr formation are determined from integration of these peaks, and typically, the inhibitory properties of the synthetic compounds are determined from slope/intercept analysis of a plot of 1/v vs. [inhibitor] (Dixon analysis). Ki values resulting from this type of primary analysis are accurate for competitive inhibitors only, and under conditions in which the Michaelis constant of the substrate used is well determined.", "units": {"Ki": "µM"}, "values": [
      {"smiles": "COC(=O)[C@@H](NC(=O)[C@@H](NC(=O)C(C)N1CCC(C(C)NC(=O)[C@H](C)N)=CC(Cc2ccccc2)C1=O)C(C)C)C(C)C", "note": "(stereo partly drawn) [Example 1, 2-[3-benzyl-5-(1-alanylamino-ethyl)-2,3,6,7-tetrahydro-1H-2-oxo-azepin-1-yl]-1-oxo-propyl-valinyl-valine methyl ester]", "Ki": 100},
      {"smiles": "COC(=O)[C@@H](NC(=O)[C@@H](NC(=O)C(C)N1CCC(C(C)NC(=O)[C@H](C)N)=CC(Cc2ccccc2)C1)C(C)C)C(C)C", "note": "(stereo partly drawn) [Example 2, 2-[3-benzyl-5-(1-alanylamino-ethyl)-2,3,6,7-tetrahydro-1H-azepin-1-yl]-1-oxo-propyl-valinyl-valine methyl ester]", "Ki": 0.6},
      {"smiles": "COC(=O)[C@@H](NC(=O)[C@@H](NC(=O)C(C)N1CCC(C(C)NC(=O)[C@@H](N)Cc2ccccc2)=CC(Cc2ccccc2)C1)C(C)C)C(C)C", "note": "(stereo partly drawn) [Example 3, 2-[3-benzyl-5-(1-(phenylalanyl)amino-ethyl)-2,3,6,7-tetrahydro-1H-azepin-1-yl]-1-oxo-propyl-valinyl-valine methyl ester]", "Ki": 3.6}
    ]}
  ]
}
